Test results reported in ChEMBL document CHEMBL1131972, “Investigation of the 4-O-alkylamine substituent of non-peptide quinolone GnRH receptor antagonists” (Bioorg Med Chem Lett, 1999).

biological target: T1, Gonadotropin-releasing hormone receptor (Rattus norvegicus, UniProt P30969); experiment: Binding affinity for Gonadotropin-releasing hormone receptor in rat pituitary membrane at 10 buserelin as radioligand; NA is not active; assay type: cell membranes
T1 sequence (P30969 whole entry): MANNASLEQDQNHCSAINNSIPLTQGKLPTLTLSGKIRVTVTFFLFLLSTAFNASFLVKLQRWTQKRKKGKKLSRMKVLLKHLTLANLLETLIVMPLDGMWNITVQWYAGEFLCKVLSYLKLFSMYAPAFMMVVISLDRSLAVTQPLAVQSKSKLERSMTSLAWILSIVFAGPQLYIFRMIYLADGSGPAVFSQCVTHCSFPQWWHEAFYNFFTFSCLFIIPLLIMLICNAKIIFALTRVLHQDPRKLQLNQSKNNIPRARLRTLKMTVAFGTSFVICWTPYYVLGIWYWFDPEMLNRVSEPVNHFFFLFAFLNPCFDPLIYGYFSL

Compound	IC50
Cc1cc(C)cc(-c2c(O)nc3cc(Cl)c([N+](=O)[O-])cc3c2OCCc2ccccn2)c1	Not Active

biological target: T1, Gonadotropin-releasing hormone receptor; experiment: Binding affinity for Gonadotropin-releasing hormone receptor in rat pituitary membrane at 10 buserelin as radioligand; assay type: cell membranes

Compound	IC50
Cc1cc(C)cc(-c2c(O)nc3cc(Cl)c([N+](=O)[O-])cc3c2OCCCC2CCCCN2)c1 (stereo unspecified)	1420 nM
Cc1cc(C)cc(-c2c(O)nc3cc(Cl)c([N+](=O)[O-])cc3c2OCC[C@@H]2CCN2)c1	25 nM
Cc1cc(C)cc(-c2c(O)nc3cc(Cl)c([N+](=O)[O-])cc3c2OCC[C@@H]2CCCN2)c1	15 nM
Cc1cc(C)cc(-c2c(O)nc3cc(Cl)c([N+](=O)[O-])cc3c2OCC[C@@H]2CCCCN2)c1	10 nM
Cc1cc(C)cc(-c2c(OCC3CCCNC3)c3cc([N+](=O)[O-])c(Cl)cc3[nH]c2=O)c1 (stereo unspecified)	36 nM
Cc1cc(C)cc(-c2c(OCCC3CCCCCN3)c3cc([N+](=O)[O-])c(Cl)cc3[nH]c2=O)c1 (stereo unspecified)	36 nM
Cc1cc(C)cc(-c2c(O)nc3cc(Cl)c([N+](=O)[O-])cc3c2OCC[C@H]2CCCCN2C)c1	85 nM
Cc1cc(C)cc(-c2c(O)nc3cc(Cl)c([N+](=O)[O-])cc3c2OCC[C@H]2CCCN2)c1	100 nM
Cc1cc(C)cc(-c2c(O)nc3cc(Cl)c([N+](=O)[O-])cc3c2OCC[C@H]2CCCCN2)c1	150 nM
Cc1cc(C)cc(-c2c(O)nc3cc(Cl)c([N+](=O)[O-])cc3c2OCC[C@@H]2CCCCN2C)c1	20 nM
